According to BindingDB's records for patent US20230339915 (Vertex Pharmaceuticals, 2023):

Each molecule was assayed against T1, Alpha-1-antitrypsin [E366K] (Homo sapiens, UniProt P01009, E366K) (assay: Biochemical Assay (Z-AAT Elastase Activity Assay)).
T1 construct: gene SERPINA1
Method: Assay Protocol: Pre-Incubation of Z-AAT with Compounds1. 7.5 μL of Z-AAT (20 nM) was incubated with compounds 1-227 in a GCA plate for 1 hour at room temperature. Addition of hNE1. 7.5 ul of HNE solution (3 nM in PBS+0.01% BRIJ35) added into GCA plate2. Incubate plate for 30 minutes to allow Z-AAT/HNE suicide complex formation. Addition of Substrate and Read Plate on PE Envision1. 7.5 μL of substrate (300 μM solution of elastase substrate (ES V) in PBS+0.01% BRIJ35) dispensed per well into GCA plate2. Immediately read on Envision.

T1 sequence (P01009 25-418 E366K limits assumed): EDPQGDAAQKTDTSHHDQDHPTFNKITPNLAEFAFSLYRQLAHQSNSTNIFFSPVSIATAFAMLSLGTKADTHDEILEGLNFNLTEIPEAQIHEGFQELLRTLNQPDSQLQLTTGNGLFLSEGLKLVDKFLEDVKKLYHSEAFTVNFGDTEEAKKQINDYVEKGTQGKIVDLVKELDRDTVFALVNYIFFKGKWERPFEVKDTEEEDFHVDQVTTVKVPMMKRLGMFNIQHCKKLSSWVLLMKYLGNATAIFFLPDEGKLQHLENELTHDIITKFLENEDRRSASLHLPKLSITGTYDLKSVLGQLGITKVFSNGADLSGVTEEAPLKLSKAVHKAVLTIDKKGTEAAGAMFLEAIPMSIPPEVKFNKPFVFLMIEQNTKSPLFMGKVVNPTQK

Row | IC50 [µM] | SMILES
1 | > 5 | Cc1cc(-n2c(C(C)C)c([C@H]3C[C@@H]3C(=O)O)c3cc(O)c(F)cc32)ccc1F [US20230339915, Compound 129]
2 | < 2 | Cc1cc(-n2c(C(C)C)c(-c3ccc(C(=O)O)cc3)c3cc(O)ccc32)ccc1F [US20230339915, Compound 167]
3 | < 2 | Cc1cc(-n2c(C(C)C)c(-c3ccc(C(=O)O)cc3C)c3cc(O)ccc32)ccc1F [US20230339915, Compound 170]
4 | > 5 | Cc1cc(-n2c(C(C)C)c(C3CC3(C)C(=O)O)c3cc(O)ccc32)ccc1F (centres undefined) [US20230339915, Compound 130]
